Patent US9242944B2 (UNIVERSITY OF MARYLAND, BALTIMORE, priority 2013, dated 2016)
Entries after “also recorded” stand apart in the source; their conditions may differ. Read-outs that look alike come from different tables or passages of the source.

Assays:
[1] = tested on: Daudi cells; assay: Growth inhibition (MTT assay) in Daudi cells; assay type: cell-based; settings: for IC50: Homo sapiens, Daudi
Method: (§1) These were performed using HL60 human promyelocytic leukemia cells or Daudi Burkitt lymphoma cells essentially as described previously (23). Briefly, cells were seeded into 96 well dishes (5000 cells/well and 10,000 cells/well for HL60 and Daudi cells, respectively). Growth medium consisted of RPMI medium supplemented with Penicillin/Streptomycin, glutamine and 10% fetal bovine serum. The indicated concentrations of each compound were then added and 10-point growth inhibition assays were performed 3-5 days later using the MTT assay. Each point was performed in quadruplicate.
(§2) Daudi Burkitt lymphoma and HL60 promyelocytic leukemia cells were maintained in RPMI medium supplemented with 10% fetal bovine serum.(23) For growth inhibition studies, 3×10^3 cells were seeded in 96 well plates in the presence of serial dilutions of each compound. A total of 10 dilutions, ranging from 0.1 to 50 μM were performed for each compound. Standard MTT assays (23) were used to quantify cell number 3-4 days later and compared to wells exposed to DMSO vehicle only.

[2] = tested on: HL60 cells; assay: Growth inhibition (MTT assay) in HL60 cells; assay type: cell-based, human; settings: for IC50: Homo sapiens, HL-60, MTT assay; for IC50 HL60: MTT assay
Method: as §1, §2

[3] = target: T1, Max-Max homodimers (Homo sapiens, UniProt P61244); assay: EMSA of Max-Max homodimerization and DNA binding; settings: for IC50: 50% inhibition of Max-Max dimerization and DNA binding in EMSAs
T1 construct: His6; made in house; host or cells: bacteria

[4] = target: T2, c-Myc-Max heterodimers (Homo sapiens, UniProt P01106); assay: Electrophoretic mobility shift assay (EMSA) of c-Myc-Max dimerization and DNA binding; settings: for IC50: 50% inhibition of c-Myc-Max dimerization and DNA binding in EMSAs
T2 construct: c-Myc bHLH-ZIP domain (residues 353-437); His6-TEV protease substrate tag; made in house; host or cells: bacteria (pET151 vector for Myc)
Method: The ability of a small-molecule to interfere with c-Myc-Max dimerization is conveniently assessed through the disruption of the c-Myc-Max/DNA ternary complex by an electrophoretic mobility shift assay (EMSA) using fluorescently-labelled DNA, and subsequently quantified by densitometry.(23) Accordingly, a 100-member library was screened for the ability to disrupt the c-Myc-Max dimer.
These were performed essentially as described previously (23). Briefly, Ni^+-agarose-purified His6-tagged c-Myc bHLH-ZIP domain (residues 353-437) was used for all binding assays as was the His6-tagged 151 residue isoform of Max, otherwise referred to as Max(S) (residues 2-151) (21). For each binding reaction, the proteins were allowed to heterodimerize at a concentration of 30 nM each in the presence of 20 nM of a 5′-HEX-tagged double-stranded 22-base pair oligonucleotide 5′-hexachlorofluoresceine-[…]-3′ (SEQ ID NO: 1) containing a consensus c-Myc binding site (CACGTG) and the indicated concentration of small molecule inhibitor. Control reactions contained the same oligonucleotide in the presence of 60 nM of the 160 residue isoform of Max referred to as Max(L) (21). All binding reactions were prepared in a buffer consisting of PBS (pH 7.3), 1 mmol/L EDTA, 0.1% NP40, 5% glycerol, 1 mmol/L DTT, and 0.4 mg/mL bovine serum albumin. Electrophoresis was performed on 8% polyacrylamide/bisacrylamide (80:1) gels in […] (23). Each reaction was run on at least three separate occasions.
EMSAs were performed essentially as described utilizing bacterially-expressed recombinant proteins purified nearly to homogeneity.(23) Experiments with Max homodimers used the His6-tagged 160 amino acid isoform of the protein, termed Max(L), which homodimerizes and binds DNA well. For studies with Myc-Max heterodimers, the His6-tagged 151 residue isoform of Max [Max(S)] was used, which binds DNA well as a heterodimer with Myc but poorly as a homodimer.(23) Recombinant Myc protein, expressed in the pET151 vector, consisted of the His6-TEV protease substrate-tagged 85 amino acid bHLH-ZIP domain. (23) Each protein was purified by Ni-agarose affinity chromatography as previously described. (23) The His6-TEV tag was removed from the Myc protein by TEV protease cleavage followed by re-purification using Ni-agarose affinity chromatography to remove the His6-TEV protease and the cleaved His6-TEV tag as previously described. Binding assays were performed with 30 nM of each protein and 30 nM of a 6-carboxy-2′,4,4′,5′,7,7′-hexachlorofluorescein (HEX)-tagged double-stranded oligonucleotide containing a consensus Myc binding site (IDT, Coralville, Iowa).(23)

[5] = 10-point serial dilution, quadruplicate
[6] = 10-point serial dilution, quadruplicate, read-out: IC50 Daudi
[7] = 10-point serial dilution, quadruplicate, read-out: IC50 HL60
[8] = Table 10, 100 μM small-molecule, EMSA, read-out: % Inhibition of c-Myc-Max Dimerization
[9] = Table 11, 100 uM, EMSA, read-out: % Inhibition of c-Myc-Max Dimerization

T1 sequence (P61244 whole entry): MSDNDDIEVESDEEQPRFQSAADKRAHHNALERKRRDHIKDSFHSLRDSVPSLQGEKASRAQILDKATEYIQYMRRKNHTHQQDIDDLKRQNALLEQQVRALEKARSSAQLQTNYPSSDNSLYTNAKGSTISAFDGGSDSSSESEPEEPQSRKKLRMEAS
T2 sequence (P01106 368-452, one chain of several): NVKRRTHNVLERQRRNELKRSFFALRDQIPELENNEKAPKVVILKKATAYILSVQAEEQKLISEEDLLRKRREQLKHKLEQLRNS

IC50 Daudi [1, 5]	IC50 [1, 6] [µM]	IC50 [2, 7] [µM]	IC50 HL60 [2, 5]	IC50 [3] [µM]	IC50 [4] [µM]	inhibition at 100 µM [4, 9] [%]	Structure (SMILES)	further results
inactive	> 100	> 100	inactive	> 100	> 100	–	Cc1ccc(-c2cc(C(=O)O)ccc2Nc2ccc([N+](=O)[O-])c3nonc23)cc1 [Compound 3jc53-6, 4′-Methyl-6-((7-nitrobenzo[c][1,2,5]oxadiazol-4-yl)amino)-[1,1′-biphenyl]-3-carboxylic acid]	inhibition of c-Myc-Max dimerization in vitro (in words) ([4]; EMSA): inactive in vitro; inhibition at 100 µM [4, 8]: 16%
–	0.5 ± 0.025	0.877 ± 0.07	–	> 100	75	–	COC(=O)c1ccc(Nc2ccc([N+](=O)[O-])c3nonc23)c(-c2ccc(C(F)(F)F)cc2)c1 [Compound 4jc23-4, Methyl 6-((7-nitrobenzo[c][1,2,5]oxadiazol-4-yl)amino)-4′-(trifluoromethyl)-[1,1′-biphenyl]-3-carboxylate]	IC50 ([1]; read-out: IC50 against Daudi cells): 0.5 µM; IC50 ([2]; read-out: IC50 against HL60 cells): 0.877 µM; inhibition at 100 µM [4, 8]: 74%
single-digit micromolar	5.1 ± 0.56	3.1 ± 0.3	single-digit micromolar	> 100	57.9	–	O=C(Nc1ccccc1)c1ccc(Nc2ccc([N+](=O)[O-])c3nonc23)cc1 [JY-5-195, 4-((7-Nitrobenzo[c][1,2,5]oxadiazol-4-yl)amino)-N-phenylbenzamide]	–
single-digit micromolar	3.9 ± 0.4	5.3 ± 0.3	single-digit micromolar	> 100	71	–	O=C(Nc1ccccc1C(F)(F)F)c1ccc(Nc2ccc([N+](=O)[O-])c3nonc23)cc1 [JY-5-261, 4-((7-Nitrobenzo[c][1,2,5]oxadiazol-4-yl)amino)-N-(2-(trifluoromethyl)phenyl)benzamide]	–
–	–	–	–	–	–	9	N#Cc1ccc(Nc2ccccc2-c2ccccc2)c(Cl)c1 [SF-3-083]	–
–	–	–	–	–	–	0	NC(=O)c1ccc(Nc2ccccc2-c2ccccc2)cc1 [SF-3-093A]	–
–	–	–	–	–	–	4	O=C(O)c1ccc(Nc2ccccc2-c2ccccc2)cc1 [SF-3-093B]	–
–	–	–	–	–	–	0	Nc1ccc(Nc2ccccc2-c2ccccc2)cc1 [SF-3-098]	–
–	–	–	–	–	–	0	O=[N+]([O-])c1ccc(Nc2ccccc2-c2ccccc2)cc1O [SF-3-101]	–
–	–	–	–	–	–	0	NC(=O)c1cc([N+](=O)[O-])ccc1Nc1ccccc1-c1ccccc1 [SF-3-103A]	–
inactive	> 100	> 100	inactive	> 100	84	≥ 33	O=C(O)c1cc([N+](=O)[O-])ccc1Nc1ccccc1-c1ccccc1 [SF-3-103B, 2-([1,1′-biphenyl]-2-ylamino)-5-nitrobenzoic acid]	c-Myc-Max inhibitory potency relative to 10074-G5 ([4]; EMSA): nearly two-fold more potent
–	–	–	–	–	–	0	NC(=O)c1cc(Nc2ccccc2-c2ccccc2)ccc1[N+](=O)[O-] [SF-3-104A]	–
–	–	–	–	–	–	0	COC(=O)c1ccc(Nc2ccccc2-c2ccccc2)cc1 [SF-3-105]	–
–	–	–	–	–	–	0	COC(=O)c1cc([N+](=O)[O-])ccc1Nc1ccccc1-c1ccccc1 [SF-3-106]	–
–	–	–	–	–	–	0	COC(=O)c1cc(Nc2ccccc2-c2ccccc2)ccc1[N+](=O)[O-] [SF-3-107]	–

Structure (SMILES)	IC50 Daudi [1, 5]	IC50 [1, 6] [µM]	IC50 [2, 7] [µM]	IC50 HL60 [2, 5]	IC50 [3] [µM]	IC50 [4] [µM]	inhibition at 100 µM [4, 9] [%]	further results
O=C(O)c1ccc(Nc2ccc([N+](=O)[O-])c3nonc23)cc1 [JY-3-094, 4-((7-Nitrobenzo[c][1,2,5]oxadiazol-4-yl)amino)benzoic acid]	inactive	> 100	> 100	inactive	> 100	33	–	activity against Max-Max homodimers ([3]; EMSA, at 100 μM): no effect; also recorded: no activity; c-Myc-Max inhibitory potency relative to 10074-G5 ([4]; EMSA): around five-fold as potent; inhibition of c-Myc-Max dimerization in vitro (in words) ([4]; EMSA): dose-dependent inhibition; selectivity for Myc-Max heterodimers over Max-Max homodimers ([4]; EMSA): greater than three-fold selectivity; also recorded: at least three-fold selective; Kd ([4]; EMSA dose-response (FIG. 4), read-out: Kd value, inhibition of Myc-Max dimerization): 33 µM; inhibition at 100 µM ([4]; read-out: % Inhibition of c-Myc-Max Dimerization, Table 10, 100 μM small-molecule, EMSA): 94%; inhibition at 100 µM ([4]; read-out: % Inhibition of c-Myc-Max Dimerization, Table 11, 100 uM, EMSA): 94%; inhibition at 100 µM ([4]; read-out: Inhibition at 100 μM (%), Table 1, 100 μM compound, Myc-Max/DNA band intensity relative to control): 93%
